Experimental data taken from US8497283B2, “Autotaxin inhibitors” (Merck Patent GmbH, priority 2009, dated 2013).

Biological target: T1, recombinant autotaxin (Homo sapiens, UniProt Q13822)
T1 construct: made in house; host or cells: Hi5 insect cells (baculovirus)
Experiment: Autotaxin assay (Amplex Red fluorescence, LPC substrate)
Assay type: biochemical
Conditions: percent of uninhibited control (100%) at 1E−05 M compound
Procedure: Autotaxin activity is measured indirectly by means of Amplex Red Reagent. In this course, Amplex Red is measured as fluorogenic indicator for generated H2O2. Autotaxin converts substrate lysophosphatidylcholine (LPC) to phosphocholine and lysophosphatidylic acid (LPA). After the conversion phosphocholine is reacted with alkaline phosphatase to obtain inorganic phosphate and choline. During the next step choline is oxidized with choline oxidase to yield betaine, whereby H2O2 is generated. H2O2 reacts with Amplex Red Reagent in the presence of peroxidase (Horseradish peroxidase) in an 1:1 stochiometry and yields highly fluorescent resorufin. The generated fluorescence is measured in a reaction-dependent kinetic mode in order to enable subtraction of fluorescence signals of possible other fluorescent compounds that are not part of the reaction from total measured fluorescence.
1.5 μl of a standard solution or of the compounds of the invention are dissolved in 20 mM Hepes pH 7.2 with maximally 7.7% DMSO in individual concentrations. The resulting solution is pre-incubated together with 10 μl (16 ng) of highly purified recombinant autotaxin in a black 384-hole microtiter plate for 30 min at 22° C.
Thereafter, the reaction is started through the addition of 5 μl L-a-lysophosphatidyl-choline (LPC), whereby the final concentration of LPC is 75 μM. The mixture is incubated for 90 min. at 37° C. After the incubation Amplex Red Reagent, peroxidase (Horseradish peroxidase) and choline oxidase are added. The fluorescence is immediately measured at a wavelength of 612 nm with an excitation wavelength of 485 nm in a “Tecan Ultra multimode” fluorescence reader. The activity of autotaxin is indirectly calculated via the amount of detected generated H2O2.
For IC50 analysis, ten serial 1:3 dilutions starting at 30 μM for each compound were run in duplicates.
IC50 values were calculated on normalized data. For normalization, control wells were added to each assay plate and the signal of uninhibited control wells was set to 100%, whereas the signal inhibited by 500 μM C14 LPA, (Avanti Polar Lipids, Cat#857120P) was set to 0%. Curves were fitted and IC50 values calculated by the following model using proprietory analysis software: Y=Bottom+(100−Bottom)/(1+10^((Log IC50−X)*HillSlope))
Where X is the logarithm of concentration. Y is the response;
Y starts at Bottom and goes to Top with a sigmoid shape.
Protein: Recombinant autotaxin (baculoviral Hi5 expression)
Substrate: L-a-lysophosphatidyl choline (chicken egg); Avanti Polar Lipids #830071P
Standard: C14 LPA, Avanti Polar Lipids, Cat#857120P
Detection Reagent Amplex Red Reagent; Invitrogen #A12222; dissolved in 1.923 ml of DMSO peroxidase Type VI-A (horseradish), Sigma #P6782; dissolved in 7.45 ml of test buffer, Choline Oxidase; Sigma #C5896; dissolved in 2.47 ml test buffer
Detection Reagent Mix: 1:100 dilution of Amplex Red Regent in test buffer
Test buffer: 200 mM Tris-HCl, Merck, Cat #1.08219, pH 7.9; 0.1% BSA, lipid free, Roche Cat#775835

Row | % CTRL (1E−05) [%] | Compound
1 | 73 | O=C(NC(CO)Cc1ccc(Cl)cc1)c1[nH]nc2c1CCN(C(=O)c1ccc3[nH]nnc3c1)C2 (centres unmarked) [Compound 40, 6-(1H-Benzotriazole-5-carbonyl)-4,5,6,7-tetrahydro-2H-pyrazolo[3,4-c]pyridine-3-carboxylic acid [2-(4-chloro-phenyl)-1-hydroxymethyl-ethyl]-amide]
2 | 76 | O=C(NCc1ccc(Cl)cc1F)c1[nH]nc2c1CCN(C(=O)c1ccc3[nH]nnc3c1)C2 [Compound 46, 6-(1H-Benzotriazole-5-carbonyl)-4,5,6,7-tetrahydro-2H-pyrazolo[3,4-c]pyridine-3-carboxylic acid 4-chloro-2-fluoro-benzylamide]

Same assay, conditions: ten serial 1:3 dilutions starting at 30 μM, duplicates; 75 μM LPC; values given as upper bounds

Row | Compound | IC50 [µM]
3 | COC(=O)c1c(NC(=O)Nc2ccc(Cl)cc2)sc2c1CCN(C(=O)c1ccc3[nH]nnc3c1)C2 [Compound 25, 6-(1H-Benzotriazole-5-carbonyl)-2-[3-(4-chloro-phenyl)-ureido]-4,5,6,7-tetrahydro-thieno[2,3-c]pyridine-3-carboxylic acid methyl ester] | < 30
4 | NC(=O)c1c(NC(=O)Nc2ccc(Cl)cc2)[nH]c2cc(C(=O)Nc3ccc4[nH]c(=O)oc4c3)ccc12 [Compound 28, 2-[3-(4-Chloro-phenyl)-ureido]-1H-indole-3,6-dicarboxylic acid 3-amide 6-[(2-oxo-2,3-dihydro-benzooxazol-6-yl)-amide]] | < 30

Other lines, results leading:

Row | IC50 [µM] | Compound
5 | < 10 | O=C(NCCc1ccc([N+](=O)[O-])cc1)c1[nH]nc2c1CCN(C(=O)c1ccc3[nH]nnc3c1)C2 [Compound 43, 6-(1H-Benzotriazole-5-carbonyl)-4,5,6,7-tetrahydro-2H-pyrazolo[3,4-c]pyridine-3-carboxylic acid [2-(4-nitro-phenyl)-ethyl]-amide]
6 | < 10 | O=C(Nc1ccc2[nH]nnc2c1)c1[nH]nc2c1CCN(C(=O)OCc1ccc(C(F)(F)F)c(Cl)c1)C2 [Compound 54, 3-(1H-Benzotriazol-5-ylcarbamoyl)-2,4,5,7-tetrahydro-pyrazolo[3,4-c]pyridine-6-carboxylic acid 3-chloro-4-trifluoromethyl-benzyl ester]
7 | < 1 | O=C(Nc1ccc2[nH]nnc2c1)c1[nH]nc2c1CCN(C(=O)OCc1ccc(SC(F)(F)F)cc1)C2 [Compound 56, 3-(1H-Benzotriazol-5-ylcarbamoyl)-2,4,5,7-tetrahydro-pyrazolo[3,4-c]pyridine-6-carboxylic acid 4-trifluoromethylsulfanyl-benzyl ester]
8 | < 10 | NC(=O)c1c(NC(=O)Nc2cc(Cl)cc(Cl)c2)sc2c1CCN(C(=O)c1ccc3[nH]nnc3c1)C2 [Compound 12, 6-(1H-Benzotriazole-5-carbonyl)-2-[3-(3,5-dichloro-phenyl)-ureido]-4,5,6,7-tetrahydro-thieno[2,3-c]pyridine-3-carboxylic acid amide]
9 | < 30 | NC(=O)c1c(NC(=O)Cc2ccc(Cl)cc2F)sc2c1CCN(Cc1cccnc1)C2 [Compound 16, 2-[2-(4-Chloro-2-fluoro-phenyl)-acetylamino]-6-pyridin-3-ylmethyl-4,5,6,7-tetrahydro-thieno[2,3-c]pyridine-3-carboxylic acid amide]
10 | < 10 | NC(=O)c1c(NC(=O)Nc2cc(Cl)cc(Cl)c2)sc2c1CCN(C(=O)c1ccc3[nH]c(=O)oc3c1)C2 [Compound 8, 2-[3-(3,5-Dichloro-phenyl)-ureido]-6-(2-oxo-2,3-dihydro-benzooxazole-6-carbonyl)-4,5,6,7-tetrahydro-thieno[2,3-c]pyridine-3-carboxylic acid amide]
11 | < 1 | NC(=O)c1c(NC(=O)Nc2ccc(Cl)cc2F)sc2c1CCN(C(=O)c1ccc3[nH]nnc3c1)C2 [Compound 15, 6-(1H-Benzotriazole-5-carbonyl)-2-[3-(4-chloro-2-fluoro-phenyl)-ureido]-4,5,6,7-tetrahydro-thieno[2,3-c]pyridine-3-carboxylic acid amide]
